Results on 15 compounds are retold here after patent publication US20090215778A1, “Alpha-substituted Arylmethyl Piperazine Pyrazolo [1,5-alpha]Pyrimidine Amide Derivatives” (priority 2007, published 2009).

One assay deals with HIV-1, NL4-3 strain. The assay is described as follows: Virus infection assay (virus entry and single-cycle infection). Type of assay: cell-based. To be noted: Human immunodeficiency virus 1, NL43, TZM-b1, read-out: Nl4. An outline of the steps: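 Single-cycle entry/infection read-out: β-galactosidase chemiluminescence measured one day after infection. Compounds were present during a 4 h, 37 °C exposure of TZM-b1 reporter cells to NL4-3 virus at MOI 0.01 plus DEAE-dextran (80 μg/mL final), followed by addition of complete medium.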

Assay [1] addresses T1, HIV Env six-helix bundle (6HB) structure (Human immunodeficiency virus type 1 group M subtype B, UniProt P04579).
T1 construct: H9 cells chronically infected with HIV-1 (H9/HIV-1RF); endogenous in cells; host or cells: H9 cells chronically infected with HIV-1 strain RF (Env is made from the virus in the infected cells, not by transfection)
The assay is described as follows: Six-helix bundle (6HB) assay. The format is cell-based, HIV-1 (strain RF). The gist of the method: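 Flow cytometry measured binding of a six-helix-bundle-specific polyclonal antibody, detected with PE-labelled secondary at 4 °C for 45 min, on H9/HIV-1 RF chronically infected cells. Compound was given 30 min at 37 °C before 1 μg/mL soluble CD4 induction for 1 h. Inhibition appears as reduced fluorescence.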

T1 sequence (P04579 32-519): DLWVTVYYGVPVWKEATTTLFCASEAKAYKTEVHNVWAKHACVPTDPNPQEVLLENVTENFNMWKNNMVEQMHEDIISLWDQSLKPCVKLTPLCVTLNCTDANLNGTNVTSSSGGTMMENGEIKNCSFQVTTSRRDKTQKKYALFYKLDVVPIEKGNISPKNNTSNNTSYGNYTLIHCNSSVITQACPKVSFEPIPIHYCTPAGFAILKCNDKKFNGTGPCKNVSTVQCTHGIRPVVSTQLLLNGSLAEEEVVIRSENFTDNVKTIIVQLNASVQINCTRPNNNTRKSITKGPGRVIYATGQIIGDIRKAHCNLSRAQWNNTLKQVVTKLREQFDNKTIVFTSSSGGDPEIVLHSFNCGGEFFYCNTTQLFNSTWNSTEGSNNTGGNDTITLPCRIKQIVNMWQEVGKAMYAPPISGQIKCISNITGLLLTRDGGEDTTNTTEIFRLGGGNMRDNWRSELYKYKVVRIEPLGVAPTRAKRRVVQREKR
T1 sequence (P04579 520-865): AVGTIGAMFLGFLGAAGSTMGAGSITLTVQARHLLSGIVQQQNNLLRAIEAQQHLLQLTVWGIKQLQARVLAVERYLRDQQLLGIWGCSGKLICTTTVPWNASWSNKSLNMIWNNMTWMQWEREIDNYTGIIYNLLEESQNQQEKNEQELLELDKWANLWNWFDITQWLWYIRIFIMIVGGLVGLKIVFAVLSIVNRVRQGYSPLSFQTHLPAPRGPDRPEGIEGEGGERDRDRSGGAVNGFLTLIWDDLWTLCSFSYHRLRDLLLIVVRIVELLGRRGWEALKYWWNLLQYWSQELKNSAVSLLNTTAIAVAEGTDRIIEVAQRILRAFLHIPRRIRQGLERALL

Consider `COc1ccc(-c2nc3c(C(=O)N4CCN([C@@H](C)c5ccc(F)cc5)C[C@H]4C)cnn3c(C(F)(F)F)c2C)cc1` [methanone, [(2R)-4-[(1S)-1-(4-fluorophenyl)ethyl]-2-methyl-1-piperazinyl][5-(4-methoxyphenyl)-6-methyl-7-(trifluoromethyl)pyrazolo[1,5-α]pyrimidin-3-yl]-], for which the IC50 in the assay on HIV-1, NL4-3 strain was < 1000 nM; in assay [1], < 1000 nM.
Consider `COc1ccc(-c2nc3c(C(=O)N4CCN([C@@H](CO)c5ccc(Cl)s5)C[C@H]4C)cnn3c(C(F)(F)F)c2C)cc1` [methanone, [(2R)-4-[(1S)-1-(5-chloro-2-thienyl)-2-hydroxyethyl]-2-methyl-1-piperazinyl][5-(4-methoxyphenyl)-6-methyl-7-(trifluoromethyl)pyrazolo[1,5-α]pyrimidin-3-yl]-], for which the IC50 in the assay with HIV-1, NL4-3 strain is < 1000 nM; in assay [1] it was < 1000 nM.
With `COc1ccc(-c2nc3c(C(=O)N4CCN([C@H](CO)c5cccnc5OC)C[C@H]4C)cnn3c(C(F)(F)F)c2C)cc1` [methanone, [(2R)-4-[(1S)-2-hydroxy-1-(2-methoxy-3-pyridinyl)ethyl]-2-methyl-1-piperazinyl][5-(4-methoxyphenyl)-6-methyl-7-(trifluoromethyl)pyrazolo[1,5-α]pyrimidin-3-yl]-], the IC50 lay in the range of 1100 to 10000 nM with HIV-1, NL4-3 strain and 1100 to 10000 nM in assay [1].
On to `COc1ccc(-c2nc3c(C(=O)N4CCN([C@H](CO)c5ccccc5OC)C[C@H]4C)cnn3c(C(F)(F)F)c2C)cc1` [methanone, [(2R)-4-[(1S)-2-hydroxy-1-(2-methoxyphenyl)ethyl]-2-methyl-1-piperazinyl][5-(4-methoxyphenyl)-6-methyl-7-(trifluoromethyl)pyrazolo[1,5-α]pyrimidin-3-yl]-], for which the IC50 in the assay on HIV-1, NL4-3 strain is < 1000 nM; in assay [1], < 1000 nM.
On to `COc1ccc(-c2nc3c(C(=O)N4CCN([C@H](CO)c5cccc(OC)c5)C[C@H]4C)cnn3c(C(F)(F)F)c2C)cc1` [methanone, [(2R)-4-[(1S)-2-hydroxy-1-(3-methoxyphenyl)ethyl]-2-methyl-1-piperazinyl][5-(4-methoxyphenyl)-6-methyl-7-(trifluoromethyl)pyrazolo[1,5-α]pyrimidin-3-yl]-], for which the IC50 in the assay on HIV-1, NL4-3 strain was < 1000 nM; in assay [1] it was < 1000 nM.
For `COc1ccc(-c2nc3c(C(=O)N4CCN([C@@H](CO)c5cc(C)cs5)C[C@H]4C)cnn3c(C(F)(F)F)c2C)cc1` [methanone, [(2R)-4-[(1S)-2-hydroxy-1-(4-methyl-2-thienyl)ethyl]-2-methyl-1-piperazinyl][5-(4-methoxyphenyl)-6-methyl-7-(trifluoromethyl)pyrazolo[1,5-α]pyrimidin-3-yl]-], the IC50 is < 1000 nM in the assay on HIV-1, NL4-3 strain and < 1000 nM in assay [1].
`COc1ccc(-c2nc3c(C(=O)N4CCN([C@H](CO)c5cscc5C)C[C@H]4C)cnn3c(C(F)(F)F)c2C)cc1` [methanone, [(2R)-4-[(1S)-2-hydroxy-1-(4-methyl-3-thienyl)ethyl]-2-methyl-1-piperazinyl][5-(4-methoxyphenyl)-6-methyl-7-(trifluoromethyl)pyrazolo[1,5-α]pyrimidin-3-yl]-]: the IC50 in the assay with HIV-1, NL4-3 strain was < 1000 nM; in assay [1] it was < 1000 nM.
With `COc1ccc(-c2nc3c(C(=O)N4CCN([C@@H](CO)c5ccc(C)s5)C[C@H]4C)cnn3c(C(F)(F)F)c2C)cc1` [methanone, [(2R)-4-[(1S)-2-hydroxy-1-(5-methyl-2-thienyl)ethyl]-2-methyl-1-piperazinyl][5-(4-methoxyphenyl)-6-methyl-7-(trifluoromethyl)pyrazolo[1,5-α]pyrimidin-3-yl]-], the IC50 is < 1000 nM with HIV-1, NL4-3 strain and < 1000 nM in assay [1].
For `COc1ccc(-c2nc3c(C(=O)N4CCN([C@H](CO)c5ccccc5)C[C@H]4C)cnn3c(C(F)(F)F)c2C)cc1` [methanone, [(2R)-4-[(1S)-2-hydroxy-1-phenylethyl]-2-methyl-1-piperazinyl][5-(4-methoxyphenyl)-6-methyl-7-(trifluoromethyl)pyrazolo[1,5-α]pyrimidin-3-yl]-], the IC50 in the assay with HIV-1, NL4-3 strain was < 1000 nM; in assay [1] it was < 1000 nM.
Turning to `COc1ccc(-c2nc3c(C(=O)N4CCN(C(CO)c5ccccc5NC(=O)C(C)C)C[C@H]4C)cnn3c(C(F)(F)F)c2C)cc1` (stereo partly drawn) [propanamide, N-[2-[2-hydroxy-1-[(3R)-4-[[5-(4-methoxyphenyl)-6-methyl-7-(trifluoromethyl)pyrazolo[1,5-α]pyrimidin-3-yl]carbonyl]-3-methyl-1-piperazinyl]ethyl]phenyl]-2-methyl-], the IC50 was > 10100 nM with HIV-1, NL4-3 strain and > 10100 nM in assay [1].
In the case of `COc1ccc(-c2nc3c(C(=O)N4CCN(C(CO)c5cccc(NC(=O)C(C)C)c5)C[C@H]4C)cnn3c(C(F)(F)F)c2C)cc1` (stereo partly drawn) [propanamide, N-[3-[2-hydroxy-1-[(3R)-4-[[5-(4-methoxyphenyl)-6-methyl-7-(trifluoromethyl)pyrazolo[1,5-α]pyrimidin-3-yl]carbonyl]-3-methyl-1-piperazinyl]ethyl]phenyl]-2-methyl-], the IC50 is 1100 to 10000 nM in the assay with HIV-1, NL4-3 strain and < 1000 nM in assay [1].
On the same counts, the results for `COc1ccc(-c2nc3c(C(=O)N4CCN(C(CO)c5ccccc5NC(N)=O)C[C@H]4C)cnn3c(C(F)(F)F)c2C)cc1` (stereo partly drawn) [urea, N-[2-[2-hydroxy-1-[(3R)-4-[[5-(4-methoxyphenyl)-6-methyl-7-(trifluoromethyl)pyrazolo[1,5-α]pyrimidin-3-yl]carbonyl]-3-methyl-1-piperazinyl]ethyl]phenyl]-] are > 10100 nM and > 10100 nM.
For `COc1ccc(-c2nc3c(C(=O)N4CCN(C(CO)c5cccc(NC(N)=O)c5)C[C@H]4C)cnn3c(C(F)(F)F)c2C)cc1` (stereo partly drawn) [urea, N-[3-[2-hydroxy-1-[(3R)-4-[[5-(4-methoxyphenyl)-6-methyl-7-(trifluoromethyl)pyrazolo[1,5-α]pyrimidin-3-yl]carbonyl]-3-methyl-1-piperazinyl]ethyl]phenyl]-], in that order: 1100 to 10000 nM and < 1000 nM.
With `COc1ccc(-c2nc3c(C(=O)N4CCN([C@@H](C)c5cccc(NC(N)=O)c5)C[C@H]4C)cnn3c(C(F)(F)F)c2C)cc1` [urea, N-[3-[(1S)-1-[(3R)-4-[[5-(4-methoxyphenyl)-6-methyl-7-(trifluoromethyl)pyrazolo[1,5-α]pyrimidin-3-yl]carbonyl]-3-methyl-1-piperazinyl]ethyl]phenyl]-], the IC50 with HIV-1, NL4-3 strain is < 1000 nM; in assay [1], < 1000 nM.
Consider `COc1ccc(-c2nc3c(C(=O)N4CCN([C@@H](C)c5ccc(NC(N)=O)cc5)C[C@H]4C)cnn3c(C(F)(F)F)c2C)cc1` [urea, N-[4-[(1)-1-[(3R)-4-[[5-(4-methoxyphenyl)-6-methyl-7-(trifluoromethyl)pyrazolo[1,5-α]pyrimidin-3-yl]carbonyl]-3-methyl-1-piperazinyl]ethyl]phenyl]-], for which the IC50 is < 1000 nM in the assay on HIV-1, NL4-3 strain and 1100 to 10000 nM in assay [1].
